Laboratory results: ChEMBL document CHEMBL5241120, “Insights into the medicinal chemistry of heterocycles integrated with a pyrazolo[1,5-a]pyrimidine scaffold” (RSC Med Chem, 2022)
≈ marks a conversion by molar mass, not a printed value. Values belong to the compound of their own block, whether it stands above or below them.

Tests used:
Escherichia coli [1] = assay: Antibacterial activity against Escherichia coli assessed as zone of inhibition; assay type: functional
Aspergillus niger [2] = assay: Antifungal activity against Aspergillus niger assessed as zone of inhibition; assay type: functional
Salmonella typhimurium = assay: Antibacterial activity against Salmonella typhimurium assessed as zone of inhibition; assay type: functional, Salmonella enterica subsp. enterica serovar Typhimurium
[3] = target: T1, liver carboxylesterase (CES) (Sus scrofa, UniProt Q29550); assay: Inhibition of pig liver CES at 20 uM relative to control; assay type: tissue-based
T1 sequence (Q29550 whole entry): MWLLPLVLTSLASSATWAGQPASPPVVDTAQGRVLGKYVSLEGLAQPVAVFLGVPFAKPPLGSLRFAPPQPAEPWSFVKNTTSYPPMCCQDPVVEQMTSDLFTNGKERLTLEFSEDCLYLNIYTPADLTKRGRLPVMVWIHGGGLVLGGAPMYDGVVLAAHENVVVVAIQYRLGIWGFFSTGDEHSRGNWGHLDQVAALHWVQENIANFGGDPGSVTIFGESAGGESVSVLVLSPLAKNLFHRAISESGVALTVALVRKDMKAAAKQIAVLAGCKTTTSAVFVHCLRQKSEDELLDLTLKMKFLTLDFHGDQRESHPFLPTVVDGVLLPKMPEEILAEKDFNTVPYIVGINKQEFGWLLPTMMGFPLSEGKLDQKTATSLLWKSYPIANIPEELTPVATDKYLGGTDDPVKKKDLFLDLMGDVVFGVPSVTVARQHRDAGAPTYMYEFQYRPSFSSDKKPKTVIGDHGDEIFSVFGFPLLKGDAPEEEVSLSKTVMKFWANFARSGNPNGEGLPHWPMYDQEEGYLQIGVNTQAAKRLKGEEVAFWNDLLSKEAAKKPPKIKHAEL

[4] = Antioxidant activity assessed as ABTS radical scavenging activity; assay type: functional
Rattus norvegicus [5] = assay: Analgesic activity in Sprague-Dawley rat at 15 mg/kg after 2 hrs by hot plate test; assay type: functional
Enterococcus faecalis = assay: Antibacterial activity against Enterococcus faecalis assessed as zone of inhibition at 5 mg/ml; assay type: functional; conditions: read-out: IZ
Proteus vulgaris = assay: Antibacterial activity against Proteus vulgaris assessed as zone of inhibition at 5 mg/ml; assay type: functional; conditions: read-out: IZ
Streptococcus mutans = assay: Antibacterial activity against Streptococcus mutans assessed as zone of inhibition at 5 mg/ml; assay type: functional; conditions: read-out: IZ
Staphylococcus aureus [6] = assay: Antibacterial activity against Staphylococcus aureus assessed as zone of inhibition at 5 mg/ml; assay type: functional; conditions: read-out: IZ
Bacillus subtilis [7] = assay: Antibacterial activity against Bacillus subtilis assessed as zone of inhibition at 5 mg/ml; assay type: functional; conditions: read-out: IZ
Escherichia coli [8] = assay: Antibacterial activity against Escherichia coli assessed as zone of inhibition at 5 mg/ml; assay type: functional; conditions: read-out: IZ
Androgen receptor = target: T2, Androgen receptor (Homo sapiens, UniProt P10275); assay: Antagonist activity at androgen receptor (unknown origin)
T2 sequence (P10275 whole entry): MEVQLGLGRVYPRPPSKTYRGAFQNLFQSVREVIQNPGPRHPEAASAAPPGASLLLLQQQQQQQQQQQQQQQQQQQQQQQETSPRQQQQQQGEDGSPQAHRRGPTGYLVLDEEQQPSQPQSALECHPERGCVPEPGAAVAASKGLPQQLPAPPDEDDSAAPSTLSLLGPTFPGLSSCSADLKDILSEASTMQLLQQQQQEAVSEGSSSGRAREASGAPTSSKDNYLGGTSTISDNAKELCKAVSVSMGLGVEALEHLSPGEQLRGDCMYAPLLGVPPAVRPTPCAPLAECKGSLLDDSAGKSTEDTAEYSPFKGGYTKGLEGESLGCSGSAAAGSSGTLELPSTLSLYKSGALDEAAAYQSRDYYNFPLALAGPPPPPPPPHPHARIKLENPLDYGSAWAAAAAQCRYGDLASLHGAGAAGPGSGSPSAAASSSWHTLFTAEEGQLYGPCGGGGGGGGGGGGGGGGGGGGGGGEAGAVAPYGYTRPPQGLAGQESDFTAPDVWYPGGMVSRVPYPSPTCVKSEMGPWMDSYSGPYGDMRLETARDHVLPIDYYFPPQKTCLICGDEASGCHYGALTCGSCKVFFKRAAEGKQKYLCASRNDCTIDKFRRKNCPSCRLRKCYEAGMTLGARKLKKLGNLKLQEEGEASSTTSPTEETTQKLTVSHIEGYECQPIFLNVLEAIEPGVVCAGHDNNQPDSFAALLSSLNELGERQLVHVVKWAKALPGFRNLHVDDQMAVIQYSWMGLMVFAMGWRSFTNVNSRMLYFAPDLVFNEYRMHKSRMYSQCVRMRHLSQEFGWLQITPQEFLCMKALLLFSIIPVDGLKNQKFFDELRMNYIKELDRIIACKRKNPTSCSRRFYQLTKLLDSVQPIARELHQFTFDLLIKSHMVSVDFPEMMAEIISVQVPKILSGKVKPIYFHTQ

HepG2 = assay: Cytotoxicity against human HepG2 cells by MTT assay; assay type: functional, cell-based
MCF7 = assay: Cytotoxicity against human MCF7 cells by MTT assay; assay type: functional, cell-based
HCT-116 [9] = assay: Cytotoxicity against human HCT-116 cells by MTT assay; assay type: functional, cell-based
HCT-116 [10] = assay: Cytotoxicity against human HCT-116 cells; assay type: functional
Staphylococcus aureus [11] = assay: Antibacterial activity against Staphylococcus aureus assessed as zone of inhibition; assay type: functional
[12] = target: T3, Prostaglandin G/H synthase 1 (Ovis aries, UniProt P05979); assay: Inhibition of ovine COX-1
T3 sequence (P05979 whole entry): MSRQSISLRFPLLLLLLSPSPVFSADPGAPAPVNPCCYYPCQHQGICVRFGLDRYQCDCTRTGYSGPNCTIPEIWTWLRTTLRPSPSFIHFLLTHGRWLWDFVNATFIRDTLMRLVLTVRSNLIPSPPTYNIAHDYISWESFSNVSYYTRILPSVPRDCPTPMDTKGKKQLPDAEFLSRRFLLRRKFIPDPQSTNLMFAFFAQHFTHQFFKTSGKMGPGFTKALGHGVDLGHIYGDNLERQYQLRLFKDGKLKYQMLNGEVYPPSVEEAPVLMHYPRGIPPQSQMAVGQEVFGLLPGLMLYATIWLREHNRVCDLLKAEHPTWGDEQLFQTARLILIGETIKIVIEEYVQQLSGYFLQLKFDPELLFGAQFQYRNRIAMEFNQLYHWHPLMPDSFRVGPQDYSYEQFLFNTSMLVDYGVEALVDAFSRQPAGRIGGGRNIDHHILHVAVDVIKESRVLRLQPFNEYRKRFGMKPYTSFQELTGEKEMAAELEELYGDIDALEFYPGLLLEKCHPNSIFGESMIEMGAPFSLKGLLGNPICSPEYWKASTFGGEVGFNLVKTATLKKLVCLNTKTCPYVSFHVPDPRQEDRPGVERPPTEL

[13] = Inhibition of soybean 15-LOX; parameters: species or system Glycine max
Rattus norvegicus [14] = assay: Antiinflammatory activity in rat assessed as inhibition of carrageenan induced paw edema; assay type: functional
Rattus norvegicus [15] = assay: Antiinflammatory activity in rat assessed as inhibition of carrageenan induced paw edema at 50 mg/kg; assay type: functional; parameters: scale not given: the % may be the effect or the level left
RAW264.7 [16] = assay: Antiinflammatory activity in mouse RAW264.7 cells assessed as decrease in IL-6 secretion; assay type: functional; parameters: scale not given: the % may be the effect or the level left
RAW264.7 [17] = assay: Antiinflammatory activity in mouse RAW264.7 cells assessed as decrease in TNFalpha secretion; assay type: functional; parameters: scale not given: the % may be the effect or the level left
HEK293 = assay: Cytotoxicity against HEK293 cells; assay type: functional, Homo sapiens
Candida albicans [18] = assay: Antifungal activity against Candida albicans; assay type: functional
Bacillus subtilis [19] = assay: Antibacterial activity against Bacillus subtilis; assay type: functional
Escherichia coli [20] = assay: Antibacterial activity against Escherichia coli; assay type: functional
Candida albicans [21] = assay: Antifungal activity against Candida albicans assessed as zone of inhibition; assay type: functional
Aspergillus niger [22] = assay: Antifungal activity against Aspergillus niger; assay type: functional
Aspergillus clavatus = assay: Antifungal activity against Aspergillus clavatus; assay type: functional
Mus musculus = assay: Antiinflammatory activity in mouse assessed as inhibition of paw edema after 24 hrs; assay type: functional; parameters: scale not given: the % may be the effect or the level left
CHO-K1 = assay: Cytotoxicity against CHO-K1 cells by MTT assay; assay type: toxicity, cell-based, Cricetulus griseus; parameters: concentration or dose not given beside the values; conditions: chinese hamster

Compound: Nc1nn2c(-c3ccc(S(=O)(=O)c4ccccc4)cc3)ccnc2c1/N=N/c1ccccc1[N+](=O)[O-]
inhibition zone (IZ) (Escherichia coli [1]): 25.5 mm
inhibition zone (IZ) (Aspergillus niger [2]): 26.3 mm
inhibition zone (IZ) (Salmonella typhimurium): 26.6 mm

inhibition at 20 µM [3]: 2.91%
Compound: Cc1ccc(N/N=C2\C(=O)n3nc(-c4ccccc4)cc3N=C2C(F)(F)F)cc1
Activity [4]: 0.19 µM
Activity (Rattus norvegicus [5]): 47.4%

Compound: Cc1cc(C)nc(NS(=O)(=O)c2ccc(/N=N/c3c(N)nc4c(/N=N/c5ccc(F)cc5)c(N)nn4c3N)cc2)n1
zone of inhibition at 5000 µg/mL (Enterococcus faecalis): 9 mm
zone of inhibition at 5000 µg/mL (Proteus vulgaris): 9 mm
zone of inhibition at 5000 µg/mL (Streptococcus mutans): 9 mm
zone of inhibition at 5000 µg/mL (Staphylococcus aureus [6]): 9 mm
zone of inhibition at 5000 µg/mL (Bacillus subtilis [7]): 9 mm
zone of inhibition at 5000 µg/mL (Escherichia coli [8]): 9 mm

IC50 (Androgen receptor): 487 µM
Compound: O=C(O)c1nn2c(c1Cl)NC(c1ccccc1)CC2C(F)(F)F (stereo not given)

Compound: O=[N+]([O-])c1ccc(OP(=O)(O)Oc2ccc([N+](=O)[O-])cc2)cc1
inhibition at 20 µM [3]: 1.8%

Compound: Nc1nc2c(/N=N/c3ccc(C(F)(F)F)cc3)c(N)nn2c(N)c1/N=N/c1ccc(C(F)(F)F)cc1
zone of inhibition at 5000 µg/mL (Bacillus subtilis [7]): 8 mm
IC50 (HepG2): 0.6 µg/mL (≈ 1.18 µM)
IC50 (MCF7): 0.3 µg/mL (≈ 0.59 µM)
IC50 (HCT-116 [9]): 0.4 µg/mL (≈ 0.787 µM)

Compound: COc1ccc(-c2cc3nccc(-c4ccccc4)n3n2)cc1
Activity (HCT-116 [10]): 26%

Compound: Nc1nn2c(-c3ccc(S(=O)(=O)c4ccccc4)cc3)ccnc2c1/N=N/c1cccc(Cl)c1
inhibition zone (IZ) (Staphylococcus aureus [11]): 23.4 mm
inhibition zone (IZ) (Aspergillus niger [2]): 25.1 mm
inhibition zone (IZ) (Salmonella typhimurium): 26.3 mm

IC50 [12]: 12.6 µM
IC50 [13]: 18.4 µM
Compound: COc1ccnc(Nc2nn3c(SC)c(C#N)c(O)nc3c2C#N)c1
ED50 (Rattus norvegicus [14]): 35 mg/kg
Activity (Rattus norvegicus [15]): 46%
Activity (RAW264.7 [16]): 80%
Activity (RAW264.7 [17]): 89%

Compound: COc1ccc(-c2ccnc3cc(-c4ccccc4)nn23)cc1
Activity (HEK293): 48%

MIC (Candida albicans [18]): 15.6 µg/mL (≈ 38.5 µM)
Compound: NC(=O)c1c(Nc2ccccc2)nn2c(-c3ccccc3)cc(-c3ccccc3)nc12

Compound: COc1ccc(-c2ccnc3cc(-c4ccc(Cl)cc4)nn23)cc1
Activity (HCT-116 [10]): 37%

MIC (Candida albicans [18]): 15.6 µg/mL (≈ 37.4 µM)
Compound: COc1ccc(Nc2nn3c(N)c(C#N)c(-c4ccc(F)cc4)nc3c2C(N)=O)cc1

MIC (Bacillus subtilis [19]): 10 µg/mL (≈ 30.8 µM)
MIC (Escherichia coli [20]): 10 µg/mL (≈ 30.8 µM)
MIC (Aspergillus niger [22]): 10 µg/mL (≈ 30.8 µM)
MIC (Aspergillus clavatus): 10 µg/mL (≈ 30.8 µM)
Compound: Cc1cc(NN2C(=O)C3CCCCC3C2=O)n2ncc(C#N)c2n1 (stereo not given)
inhibition zone (IZ) (Candida albicans [21]): 19.1 mm

Compound: COc1ccc(-c2cnc3c(C(=O)Nc4c(C)n(C)n(-c5ccccc5)c4=O)cnn3c2N)cc1
Activity (Mus musculus): 25%
Activity (CHO-K1): 72.96%

Compound: Cc1c(C)c2c(c(C)c1O)CCC(C)(C(=O)O)O2 (stereo not given)
Activity [4]: 1 µM
